# Data published in patent US20220023317A1, “PREVENTING OR MITIGATING CHEMOTHERAPY INDUCED ALOPECIA USING VITAMIN D” (Berg LLC, priority 2013, published 2022).
# Columns and labels:
# [1] = test system: MIAC51; assay: Cure / survival rate of chloroleukemic rats after chemotherapy; format: in vivo, rat; conditions: CTX, after two rounds of chemotherapy
# Description: On day 5 after birth all rats received 1×105 MIAC51 intraperitoneally in 0.1 mL of serum free (SF) RPMI. MIAC51 were cultured in RPMI 1640 supplemented with L-glutamine and 10% fetal bovine serum at […] in a 5% CO2, 100% humidity incubator. Cells were grown to 50% confluency (1.5×106 mL) collected in 50 mL conical tubes, centrifuged at 600 g for 10 minutes at room temperature and resuspended in SF-RPMI at a concentration of 1×10^6/mL prior to injection.
# [2] = test system: Long Evans Rats; assay: Alopecia in chloroleukemic Long Evans rats receiving multi-course chemotherapy; format: in vivo, rat; conditions: CTX
# Description: Animals were then randomized in four groups.
# Treatments were started on day 6 after birth.
# Unused preparations were disposed of.
# [3] = test system: Long Evans and Sprague Dawley rats; conditions: CTX 37.5 mg/kg once i.p.
# Description: Specifically, Long Evans and Sprague Dawley rats with pups were purchased from Harlan Laboratories, Inc. They were housed and fed according to applicable animal handling rules and regulations. Pups were allowed to acclimate for 48 hours prior to the start of experiments. […] Rats were isolated from their littermates and mother for 6-hour periods of time. Subsequently, the treated area was cleaned with soap and water and pups were returned to their litters. On day 13, rats either received etoposide (1.5 mg/kg daily for 3 days) or cyclophosphamide (CTX) (37.5 mg/kg once) or combination cyclophosphamide (35 mg/kg once) and doxorubicin (2.5 mg/kg daily for 3 days). All chemotherapies were purchased from Sigma and were given intraperitoneally (i.p.) in a total volume of 0.1 mL. Alopecia was recorded 10 days after the last dose of chemotherapy.
smiles,measurement,setting,value
O=P1(N(CCCl)CCCl)NCCCO1 (stereo not drawn) [CTX],% cured / survival rate,[1],20%
same,Cured (number of rats),[1]; of 40,8
same,extent of alopecia (grade),"[2]; first round of chemotherapy, all rats",+4
same,rats with alopecia grade 4+ (number),"[2]; first round, 4+ = 75-100% alopecia, of 40",40
same,rats with alopecia grade 4+ (number),"[2]; second round, of 8",8
same,alopecia in control rats that received cyclophosphamide,[3],totally alopecic
